Source: patent US10154970B2, “Methods for immunomodulation of cancer and infectious disease therapy” (The Regents of the University of California, priority 2014, dated 2018)

Key:
[1] = system: IL-2; test: IL-2 mRNA expression in Jurkat cells by qRT-PCR, normalized with GAPDH; type: cell-based, human
Method: FIG. 1. Interferon gamma (IFN-γ) and interleukin (IL)-2 expression in human Jurkat cells following exposure to TRIP in vitro. Jurkat cells (2×10^6) were treated with different concentrations of TRIP as indicated for 24 hours. (A) IFN-γ and (B) IL-2 mRNA expression levels were detected by quantitative real-time polymerase chain reaction (qRT-PCR) and normalized with the expression of GAPDH. *p<0.05, **p<0.01, ***p<0.001.
FIG. 3. Effects of TRIP alone and in combination with trifluoperazine (TFP) or LY294002 (LY) on IFN-γ and IL-2 in human Jurkat cells in vitro. Jurkat cells (2×10^6) were pretreated with different concentrations of (A, B) TFP (0, 0.1, 1.0, 5.0, and 10.0 μM) and (C, D) LY294002 (0, 1, 5, 10, and 25 μM) for 1 hour, then incubated with medium containing 2.5 μM of TRIP for 24 hours. (A, C) IFN-γ and (B, D) IL-2 mRNA expression levels were detected by qRT-PCR and normalized with the expression of GAPDH. *p<0.05, **p<0.01, ***p<0.001.
FIG. 4. Effects of calmodulin, PI3K and MAPK inhibition on TRIP-induced expression of IFN-γ and IL-2 in human Jurkat cells in vitro. Jurkat cells (2×10^6) were pretreated with PD98059 (50 μM), TFP (10 μM) and LY294002 (25 μM) for 1 hour, then incubated with medium containing 2.5 μM of TRIP for 24 hours. (A) IFN-γ and (B) IL-2 mRNA expression levels were detected by qRT-PCR and normalized with the expression of GAPDH. **p<0.01, ***p<0.001, ****p<0.0001.
The potential immune regulating effects of TRIP and the possible mechanism(s) involved were determined with in vitro experiments examining the expression of T cell activating cytokines in human acute T cell leukemia Jurkat cells. The expression of IFN-γ and IL-2 RNA following exposure to increasing concentrations of TRIP (i.e., ospemifene) were first examined, followed by the effects of combining tamoxifen with TRIP on the expression of these cytokines. Different inhibitors of key T cell activation pathways—trifluoperazine (TFP), an inhibitor of calmodulin, LY294002, an inhibitor of PI3K, and PD98059, a MAPK inhibitor—in combination with TRIP were assessed for their effects on TRIP-induced expression of IFN-γ and IL-2 in Jurkat cells.
Jurkat cells (2.0×10^6) were treated with different concentrations of TRIP as indicated on the x-axis for 24 hours. (A) IFN-γ and (B) IL-2 mRNA expression levels were detected by quantitative real-time polymerase chain reaction (qRT-PCR) and normalized with the expression of GAPDH. *p<0.05, **p<0.01, ***p<0.001.
T cell activation requires multiple signals including PI3K, MAPK and calcium signaling pathways, and in order to identify the potential mechanism through which TRIP affects immune activation, Jurkat cells (2.0×10^6) were pretreated with different concentrations of TFP (0, 0.1, 1.0, 5.0 and 10.0 μM) (A, B) or LY294002 (0, 1, 5, 10 and 25 μM) (C, D) for one hour, then incubated with medium containing 2.5 μM TRIP for 24 hours. IFN-γ and IL-2 expression levels were detected by qRT-PCR and normalized with the expression of GAPDH. *p<0.05, **p<0.01, ***p<0.001.
Jurkat cells (2×10^6) were pretreated with PD98059 (50 μM), TFP (10 μM) or LY294002 (25 μM) for one hour, then incubated with medium containing 2.5 μM TRIP for 24 hours. (A) IFN-γ and (B) IL-2 mRNA expression levels were detected by qRT-PCR and normalized with expression of GAPDH. **p<0.01, ***p<0.001, ****p<0.0001.
The effects on T cell activation of different functional group substitutions on the TRIP chemical structure (Formula Ia) were examined by measuring the expression of IFN-γ and IL-2 RNA in human acute T cell leukemia Jurkat cells in vitro.
A strong increase is defined as a ≥50% increase compared to the control. A moderate increase is defined as a 25-49% increase compared to the control. A weak increase is defined as a 0-24% increase compared to the control. No effect is when there was no increase compared to the control.

[2] = system: IL-4
Method: (§1) A total of 43 wild type C57BL/6 mice were assigned to four different treatment groups: Control (n=10); and TRIP (i.e., ospemifene) 10, 50, and 100 mg/kg (n=11, all TRIP groups). All mice received a full course of tecemotide (L-BLP25) peptide vaccine (PV) immunotherapy (eight weekly 10 μg doses administered subcutaneously (s.c.) as described in Wurz G T. et al., J. Transl. Med., 11:64 (2013)). During the final 16 days of immunotherapy, mice received daily oral doses of TRIP according to treatment group assignment. TRIP oral dosing solutions were prepared by dissolving an appropriate amount of the drug in pure dimethyl sulfoxide (DMSO) and then adding peanut oil to the desired final concentration (final DMSO concentration was 2%). All doses were administered in a volume of 100 μl using 20-gauge stainless steel oral feeding needles. Control mice were given diluent only. Forty-eight hours following the final dose of PV, all mice were euthanized for the collection of blood for cytokine analysis by multiplex and spleens for assessing immune response by enzyme-linked immunosorbent spot (ELISpot) assay.
Data are expressed as the number of spot forming cells (SFC)/500,000 lymphocytes following exposure to medium (no peptide), scrambled peptide, and BP25 peptide.

[3] = system: IFN-γ; details: non-tumor bearing mice, 48 hours after final PV dose
Method: (§2) FIG. 6. Effect of TRIP and PV combination treatment on serum cytokine levels. Serum cytokines were assessed by multiplex immunoassay 48 hours following the final dose of PV, which was administered as 8 weekly 10-μg doses. TRIP was administered daily for the last 14 days of the study.
as §1

[4] = system: IL-6
Method: as §2, §1

[5] = system: IFN-γ; test: Experiment 4: IFN-γ ELISpot after short-course TRIP and PV in lung tumor-bearing mice; type: in vivo, human MUC1.Tg C57BL/6 mice; details: short-course (16-day) TRIP 10 or 50 mg/kg + one cycle of PV
Method: Effect of short-course (16-day) TRIP treatment on IFN-γ immune response. […] Lymphocytes were isolated following treatment with one cycle of PV, TRIP 10 mg/kg, TRIP 50 mg/kg, or combinations (n=10-11). PV=peptide vaccine.
A total of 65 male human MUC1.Tg C57BL/6 mice underwent urethane lung tumor induction as described (Wurz G T. et al., J. Transl. Med., 11:64 (2013)) starting at approximately five weeks of age. […] Starting in Week 20, all mice in the PV treatment groups were administered eight weekly 10 μg doses by subcutaneous (s.c.) injection (100 μl) at rotating sites using a 25-gauge needle. […] All other mice received daily oral doses of the control solution. Twenty-four hours after the final dose of TRIP and 48 hours after the last dose of PV (Week 27), all mice were euthanized for the collection of serum and spleens, which were processed appropriately for ELISpot and CTL assays. For the ELISpot assay, n=4-5.

[6] = system: mouse breast cancer cells expressing the PV target antigen (BP25); test: Example 6: tumor volume of breast cancer allografts; type: in vivo, C57BL/6 wild type mice; details: three daily oral doses TRIP 100 mg/kg before each of four weekly 100 μg PV; Days 22 and 25
Method: Antitumor effects and serum IFN-γ immune response to peptide vaccine immunotherapy alone and in combination with TRIP immunomodulator. Each of four weekly 100-μg injections of peptide vaccine (PV) was preceded by three daily oral doses of TRIP (100 mg/kg). All mice were implanted with breast cancer allografts on Day 0, and serum was collected on Day 28 following four weeks of treatment. Tumor volumes were measured twice each week. For all treatment groups, n=8.
A total of 32 female C57BL/6 wild type mice were assigned to four treatment groups (n=8): Control; TRIP (i.e., ospemifene) 100 mg/kg; tecemotide (L-BLP25) peptide vaccine (PV) (100 μg); and TRIP 100 mg/kg combined with 100 μg PV. On Day 0 of the study, all 32 mice were subcutaneously implanted with 1.0×10^6 mouse breast cancer cells expressing the PV target antigen (BP25). Two days later, mice began a three-day regimen of once daily 100 mg/kg TRIP administered orally. On Day 5, mice were administered their first weekly 100 μg dose of PV by subcutaneous injection. This treatment schedule was repeated for a total of four weeks. Tumor growth was assessed twice weekly. All mice were euthanized on Day 28 for the collection of serum and spleens to assess immune response to treatment. Immune response was assessed by performing IFN-γ ELISpot.

[7] = system: cytotoxic T lymphocyte activity; details: TRIP 50 mg/kg daily oral 16 days + PV
Method: Effects of short-course TRIP dosing regimens on cytotoxic T lymphocyte activity. Average target cell apoptosis percentages (+SEM) were assessed in control (n=10), one cycle of PV (n=11), short-course TRIP (16 days; 10 mg/kg, TRIP 10; 50 mg/kg, TRIP 50; n=11), and PV+TRIP combination (n=11) treatment groups. PV=peptide vaccine; *p<0.05.
A total of 65 male human MUC1.Tg C57BL/6 mice underwent urethane lung tumor induction as described (Wurz G T. et al., J. Transl. Med., 11:64 (2013)) starting at approximately five weeks of age. In Week 20, six weeks after the last dose of urethane, mice were randomized into six treatment groups of approximately equal average weight: Control (n=10); TRIP (i.e., ospemifene) 10 mg/kg (n=11); TRIP 50 mg/kg (n=11); tecemotide (L-BLP25) peptide vaccine (PV) alone (n=11); TRIP 10 mg/kg+PV (n=11); and TRIP 50 mg/kg+PV (n=11). Starting in Week 20, all mice in the PV treatment groups were administered eight weekly 10 μg doses by subcutaneous (s.c.) injection (100 μl) at rotating sites using a 25-gauge needle. […]
Average target cell apoptosis percentages (+SEM) were assessed in control (n=10), one cycle of PV (n=11), short-course TRIP (16 days; 10 mg/kg, TRIP 10; 50 mg/kg, TRIP 50; n=11), and PV+TRIP combination (n=11) treatment groups. […]

With OCCOc1ccc(/C(=C(/CCCl)c2ccccc2)c2ccccc2)cc1 [TRIP, Z-2-[4-(4-chloro-1,2-diphenyl-but-1-enyl)-phenoxy]ethanol] the “IL-2 RNA expression compared to control” value ([1]; Jurkat cells, different concentrations of TRIP, 24 hours, dose-dependent (FIG. 1B)) was “significantly induced”, the “IL-2 Expression” value ([1]; mRNA in Jurkat cells in vitro, relative to control sample without TRIP compound) was “+++ (strong increase)” and the “IL-4 response, PV + 50 mg/kg TRIP vs PV alone” value ([2]; TRIP 50 mg/kg daily oral final 16 days + PV) was “No significant difference”. For the same compound, the “IL-4 immune response by ELISpot, TRIP combined with PV” value ([2]; TRIP 10, 50, 100 mg/kg daily oral final 16 days + 8 weekly 10 μg PV s.c.) was “decrease with TRIP dose”, the “serum IFN-γ levels, TRIP and PV vs PV alone” value [3] was “increased” and the “serum concentrations of IL-6, TRIP 100 mg/kg and PV compared to PV alone” value ([4]; TRIP 100 mg/kg + PV) was “significantly lower”. The “serum IL-6 concentrations, TRIP and PV vs PV alone” value ([4]; non-tumor bearing mice, 48 hours after final PV dose) was “dose-dependently decreased”, the “IFN-γ immune response by ELISpot, TRIP in combination with the PV” value [5] was “equivalent increase” and the “tumor volume compared to the control group, PV in combination with TRIP” value [6] was “reduced tumor volume”. The “induction of CTL activity, PV with short-course TRIP compared to TRIP or PV treatments alone” value [7] was “significantly boosted”.
